According to patent publication US9884813B1, “Pharmaceutically acceptable salts of B-guanidinopropionic acid with improved properties and uses thereof” (Rgenix, Inc., priority 2017, dated 2018):

What was measured:
Type in all cases: physicochemical
[1] = Dynamic vapor sorption (DVS) with XRPD of the post-DVS sample; conditions: for solid form by XRPD after the DVS experiment: post DVS sample
Protocol: Samples were analyzed using an Aquadyne DVS-2 gravimetric water sorption analyzer. The relative humidity was adjusted between 2-95% and the weight of the sample was continuously monitored and recorded.
[…]: β-GPA maleate (1:1) Form II, β-GPA fumarate (1:1), β-GPA maleate (2:1), β-GPA succinate (2:1) and β-GPA oxalate (1:1) were analyzed by DVS experiment followed by XRPD analysis of the sample at the end of the experiment.
Sample 2162-64-1 was analyzed by DVS in triplicate and the post DVS samples were characterized by XRPD to identify the form at the end of the experiment.

Bulk and tapped density = assay: Bulk and tapped density
Protocol: The bulk density of β-GPA oxalate (Pattern 18 B), succinate (Pattern 15A), and fumarate (Pattern 7A) were determined by pouring in a known amount of salt (g) into a measuring cylinder. The volume (Vi) occupied by the salt was recorded and the bulk density (ρB) was determined using equation 1. ρB=g/Vi (1)
The tapped densities of the salts were determined using a Tap density analyzer. A known amount of salt was poured (g) into a measuring cylinder and the initial volume was recorded and tapped using a Tap density analyzer. The final volume (Vf) after tapping was recorded and the tapped density (ρT) was calculated by using equation 2. ρT=g/Vf (2)

[2] = Carr's index and Hausner ratio (predicted flowability)
Source text: The flow properties of β-GPA are sub-optimal. The bulk density is 0.389 g/cc and the tapped density is 0.627 g/cc. These measurements can be used to calculate the Carr's index and Hausner ratio for a substance. The Carr's index and Hausner ratio are indicators of flowability of a powder. As known in the art, e.g., as described in Carr R. L. Chem. Eng. 1965, 72, 163-168, the relationship to flowability of a powder to the Carr's index and Hausner ratio is based on the scale shown in Table 6 below.
Carr's index or Carr's compressibility index (C) is an indication of the compressibility of a powder. It can be calculated using the equation below: Carr's index (C)=100(Vi−Vf)/Vi (3) A Carr's index greater than 25 is considered to be an indication of poor flowability while a value below 15 is an indication of good flowability.
The Hausner ratio is a number that is correlated to the flowability of a powder or granular material. It is calculated by using the equation below: Hausner ratio=Vi/Vf (4)

[3] = Flowability measurement using Hanson Flodex unit
Source text: Method: A cylindrical vessel is secured to the stand and above that a funnel is also secured such that the bottom of the funnel is close to the vessel. A powder load of ≈50-60 g is then poured through the funnel into the middle of the cylinder. The lever device is pulled to open the hole in the disk quickly and without vibration. If a powder slowly flows through the small-diameter holes, leaving a cavity shaped like an upside-down, truncated cone, the test is considered positive. If a powder flocculates in bulk and falls abruptly, forming a cylindrical cavity, the test is considered negative. […] If the experiment is negative, the powder is tested again with a disk having a larger hole.

[4] = Solid form stability of 2:1 β-GPA fumarate at various temperature/humidity conditions (XRPD); conditions: for XRPD: a week
Protocol: The solid form stability of β-GPA fumarate was studied at various temperature/humidity conditions as listed in Table 23 for a week using saturated salt solution chambers. The samples were analyzed by XRPD after a week.

[5] = Gravimetric solubility of 2:1 β-GPA fumarate in solvents
Protocol: Solubility of β-GPA fumarate was measured gravimetrically in fifteen different solvents and solvent mixtures at 15 and 45° C. About 100 mg of the compound was dispensed in ten volumes (1 mL) of the solvent/solvent mixture and slurried for 48 hours. Table 24 represents the solubility of β-GPA fumarate in different solvents. After 48 hours the vials were centrifuged. The supernatant was collected and left for slow evaporation under vacuum at 45° C. and solubility was determined. The solids obtained after centrifugation and evaporation were analyzed by XRPD.

[6] = Temperature cycling experiments of 2:1 β-GPA fumarate
Protocol: The following (Table 26) experiments were performed to isolate possible polymorphic forms of 2:1 β-GPA fumarate.

[7] = Carr's index and Hausner ratio (predicted flowability); conditions: Table 18, scale of Table 17
[8] = calculated from bulk and tapped volumes

For N=C(N)NCCC(=O)O.N=C(N)NCCC(=O)O.O=C(O)/C=C/C(=O)O [β-GPA fumarate (2:1)], the “moisture uptake during the DVS experiment” value [1] was “less than 0.1%”, the “solid form by XRPD after the DVS experiment” value ([1]; listed as 2:1 fumarate salt) was “did not exhibit any dissociation of the salt” and the “solid form by XRPD after the DVS experiment” value ([1]; listed as 2162-64-1) was “identical to β-GPA fumarate (Pattern 7A)”. The Bulk density (Bulk and tapped density) was 0.576 g/cc, the Tapped density (Bulk and tapped density) was 0.613 g/cc and the “Carr's index” value [2, 8] was 5.9. For the same compound, the Hausner ratio [2, 8] was 1.063, the Flow character ([2]; predicted, scale of Table 6 (Carr's index)) was “Excellent (1-10)” and the “Did solid pass?” value ([3]; Disc pore size 4 mm) was “No”. The “Did solid pass?” value ([3]; Disc pore size 5 mm) was “Yes”, the “Did solid pass?” value ([3]; Disc pore size 6 mm) was “Yes” and the “Did solid pass?” value ([3]; Disc pore size 12 mm) was “Yes”. The XRPD ([4]; 20° C., 43% relative humidity) was “Pattern 7A”, the XRPD ([4]; 20° C., 59% relative humidity) was “Pattern 7A” and the XRPD ([4]; 20° C., 73% relative humidity) was “Pattern 7A”. For the same compound, the XRPD ([4]; 20° C., >95% relative humidity) was “Pattern 7A”, the XRPD ([4]; 40° C., 82% relative humidity) was “Pattern 7A” and the XRPD ([4]; 60° C., 50% relative humidity) was “Pattern 7A”. For the same compound, the XRPD ([4]; 60° C., 80% relative humidity) was “Pattern 7A”, the solid form stability ([4]; RH >95% at 20° C.) was “stable” and the XRPD pattern ([4]; RH >95% at room temperature, 48 hours) was “retain its original XRPD pattern (Pattern 7A)”. For the same compound, the Solubility ([5]; Acetone, 15° C.) was <1 mg/mL, the Solubility ([5]; Acetone, 45° C.) was <1 mg/mL and the Solubility ([5]; Acetone:H2O (9:1), 15° C.) was 2.5 mg/mL. The Solubility ([5]; Acetone:H2O (9:1), 45° C.) was 4.1 mg/mL, the Solubility ([5]; DCM, 15° C.) was <1 mg/mL and the Solubility ([5]; DCM, 45° C.) was 0.5 mg/mL. For the same compound, the Solubility ([5]; EtOAc, 15° C.) was <1 mg/mL, the Solubility ([5]; EtOAc, 45° C.) was <1 mg/mL and the Solubility ([5]; EtOH, 15° C.) was <1 mg/mL. The Solubility ([5]; EtOH, 45° C.) was <1 mg/mL, the Solubility ([5]; H2O:MeOH:IPA (3:5.5:5), 15° C.) was <1 mg/mL and the Solubility ([5]; H2O:MeOH:IPA (3:5.5:5), 45° C.) was <1 mg/mL. For the same compound, the Solubility ([5]; Heptane, 15° C.) was <1 mg/mL, the Solubility ([5]; Heptane, 45° C.) was <1 mg/mL and the Solubility ([5]; IPA, 15° C.) was <1 mg/mL. The Solubility ([5]; IPA, 45° C.) was <1 mg/mL, the Solubility ([5]; IPA:H2O (9:1), 15° C.) was 1.64 mg/mL and the Solubility ([5]; IPA:H2O (9:1), 45° C.) was 2.1 mg/mL. The Solubility ([5]; MeCN, 15° C.) was <1 mg/mL, the Solubility ([5]; MeCN, 45° C.) was <1 mg/mL and the Solubility ([5]; MeOH, 15° C.) was ~1 mg/mL. The Solubility ([5]; MeOH, 45° C.) was 2.73 mg/mL, the Solubility ([5]; MeOH:H2O (9:1), 15° C.) was 9.2 mg/mL and the Solubility ([5]; MeOH:H2O (9:1), 45° C.) was 11.2 mg/mL. The Solubility ([5]; TBME, 15° C.) was 3.0 mg/mL, the Solubility ([5]; TBME, 45° C.) was 28.9 mg/mL and the Solubility ([5]; THF:H2O (9:1), 15° C.) was 2.08 mg/mL. The Solubility ([5]; THF:H2O (9:1), 45° C.) was 4.12 mg/mL, the Solubility ([5]; Water, 15° C.) was 30 mg/mL and the Solubility ([5]; Water, 45° C.) was >100 mg/mL. For the same compound, the “XRPD analysis of the precipitates after 48 hours slurries” value ([5]; fifteen solvents and solvent mixtures at 15 and 45° C.) was “no form transformations”, the “Result (XRPD)” value ([6]; 50° C. 2 hours, RT, 50° C. 48 hours) was “Pattern 7A” and the “Result (XRPD)” value ([6]; dry ice-acetone 30 minutes, RT) was “Pattern 7A”. For the same compound, the “Result (XRPD)” value ([6]; heated to 150° C. and brought to room temperature, cycle repeated three times) was “Pattern 7A”, the “Result (XRPD)” value ([6]; vacuum oven 130° C. 2 hours, RT, 130° C. 48 hours) was “Pattern 7A” and the Flow character [7] was “Excellent (1-10)”.
